# In patent US20030049267A1, “Systemic immune response induced by mucosal administration of lipid-tailed polypeptides without adjuvant” (INSTITUT PASTEUR, priority 1999, published 2003):
# *: point of attachment. Palmitoyl = CCCCCCCCCCCCCCCC(=O)*
# Experiments:
# Type in all cases: in vivo
# [1] = system: BALB/c, C3H/HeJ, or C57BL/6 mice; test: Serum polypeptide-specific IgG ELISA after immunization with LSA3-NRII polypeptides
# Source text: To investigate the ability of lipid-tailed polypeptides to induce systemic antibody responses using mucosal route, the LSA3-NRII lipid-tailed polypeptide was administrated either intranasally (I.N.) or sub-lingually (S.L.) in BALB/c, C3H/HeJ which were found previously to respond strongly to the epitopes of LSA3-NRII, or C57BL/6 mice which is poorly responsive. Negative and positive controls received respectively, the non-lipidated polypeptide administrated by IN and S.L. route, or the same lipid-tailed polypeptide injected subcutaneously (S.C.) without adjuvant.
# Individual blood samples were obtained via the retro-orbital plexus by 9 to 15 days post immunization (dpi) and sera were stored at-70i C until assayed for IgG, IgA and IgM polypeptide- and parasite-specific Abs. The presence of anti-peptide antibodies in sera was determined using Enzyme-linked immunosorbent assay (ELISA) as reported previously (BenMohamed et coll., 1997). ELISA plates (Nunc, Roskilde, Denmark) were coated overnight at 4i C with 0.1 ml of LSA3-NRII or LSA1-J polypeptide solution at 3 zg/ml in PBS buffer pH 7.4 containing 3% BSA. The LSA1-J polypeptide was used as the irrelevant control of LSA3-NRII and vice versa. The plates were washed twice in PBS with 0.01% Tween-20 (PBS-T), blocked for 1 hr in PBS-T supplemented with 1% BSA prior to the addition of 0.1 ml of 1/100 dilution of mouse sera. The plates were then incubated at 37iC for one hour. After washing, the bound IgG were detected using peroxidase-conjugated goat anti-mouse IgG (Biosys, Compiegne, France) added at a 1/2000 dilution. Following incubation at 37iC for 1 hour and a final wash, 50 μl of 0.30% H2O2 containing orthophenylenediamine dihydrochloride (OPD, Sigma, St. Louis), dissolved in 0.1 M citrate buffer (pH 5.0) were added to each well at room temperature. The OD450 nm was measured using a multichannel spectrophotometer (Titertek Multiskan MCC. 340). Individual sera from all groups were diluted 1/100 and analyzed separately. Preimmune sera were used as negative controls and the results were expressed either as optical density (OD) at 450nm or as ELISA-RATIO calculated as follows: OD450 nm postimmune sera divided by OD450 nm preimmune sera. […] Isotype analysis of mouse was carried out using class specific […] Goat anti-Mouse IgA, IgM, IgGI, IgG2a, IgG2b or IgG3 HRP-Labeled (Southern Biotechnology Associates, Birmingham, USA) added at a 1/2000 dilution in PBS-T, as previously described (BenMohamed et coll., 1997).
# [2] = system: P. falciparum sporozoites and hepatic schizonts; test: Immunofluorescent Ab assay (IFAT) of sera from mucosally immunized mice
# Method: FIG. 2: Mucosal immunization elicits parasite-specific antibody responses. Sera were obtained from C3H/HeJ mice at 2 weeks post-immunization by either nasal or sub-lingual route and assayed fro recognition of (a) P. falciparum sporozoites and (B) hepatic schizonts in an IFI assay as described in Material and Methods. The data are representative of three independent experiments.
# The reactivity of the sera against native proteins from various stages of the parasite were analyzed by IFAT using either (i) P. falciparum NF54 strain sporozoites (a gift of W. Eling), or (ii) sections from liver biopsies containing day 5 P. falciparum liver schizonts, or (iii) day 6 ½ P. falciparum liver schizonts obtained from a Chimpanzee. IFAT-labeled anti-human IgG, -A, -M (Diagnostic Pasteur France) or anti-mouse (Cappel. Wester Chester. PA) diluted {fraction (1/200 )} were employed as second Abs.
# [3] = system: spleen and inguinal lymph node cells of C3H/HeJ mice; test: Lymphocyte proliferative assay after immunization with LSA3-NRII polypeptides
# Method: FIG. 3: Systemic cellular immune responses are electited by presentation of lipid-tailed polypeptides to the nasal and sub-lingual mucosal surfaces. Groups of five C3H/HeJ mice were administrated with LSA3-NRII lipid-tailed (black bars) or non-lipidated polypeptide (hatched bars) either a) intranasally, b) sub-lingually, or c) subcutaneously. Two weeks after two administrations, cell suspensions from individual spleens were assayed for in vitro proliferation to the recall polypeptide. Results are expressed as Δ cpm. The background cpm, in unstimulated cells were 1548 fro intranasal, 2356 for sub-lingual and 1965 for subcutaneous routs. Bars represent the mean Δ cpm ± SD in each group. The data were similar and are representative of three separate experiments.
# [4] = system: C3H/HeJ mice; test: Isotype analysis of polypeptide-specific serum antibodies (ELISA)
# [5] = system: ganglia sub-mandibulaires cells of BALB/c mice
substance,measurement,setting,value
"Ac-LEESQVNDDIFNSLVKSVQQEQQHNVK(Pam)NH2 (Ac-LEESQVNDDIFNSLVKSVQQEQQHNVK(Palmitoyl)-NH2; SMILES CCCCCCCCCCCCCCCC(=O)NCCCC[C@H](NC(=O)[C@@H](NC(=O)[C@H](CC(N)=O)NC(=O)[C@H](Cc1c[nH]cn1)NC(=O)[C@H](CCC(N)=O)NC(=O)[C@H](CCC(N)=O)NC(=O)[C@H](CCC(=O)O)NC(=O)[C@H](CCC(N)=O)NC(=O)[C@H](CCC(N)=O)NC(=O)[C@@H](NC(=O)[C@H](CO)NC(=O)[C@H](CCCCN)NC(=O)[C@@H](NC(=O)[C@H](CC(C)C)NC(=O)[C@H](CO)NC(=O)[C@H](CC(N)=O)NC(=O)[C@H](Cc1ccccc1)NC(=O)[C@@H](NC(=O)[C@H](CC(=O)O)NC(=O)[C@H](CC(=O)O)NC(=O)[C@H](CC(N)=O)NC(=O)[C@@H](NC(=O)[C@H](CCC(N)=O)NC(=O)[C@H](CO)NC(=O)[C@H](CCC(=O)O)NC(=O)[C@H](CCC(=O)O)NC(=O)[C@H](CC(C)C)NC(C)=O)C(C)C)[C@@H](C)CC)C(C)C)C(C)C)C(C)C)C(N)=O) [LSA3-NRII lipid-tailed polypeptide, P. falciparum LSA-3 derived polypeptide with palmitoyl tail on side chain of C-terminal lysylamide]",antibody response,"[1]; C57BL/6 strain, mucosal or subcutaneous administration",No antibody response
same,polypeptide-specific antibody responses in serum (ELISA),"[1]; I.N. or S.L. administration, without adjuvant, BALB/c and C3H/HeJ, serum two weeks after the second administration",high titers
same,"mean titers of IgG antibodies, mucosal routes versus S.C. route","[1]; both mucosal routes (I.N., S.L.) compared with S.C., p<0.05",significantly higher
same,"polypeptide specific antibody titers, sub-lingual versus intranasal groups",[1]; p<0.05 in BALB/c and p<0.01 in C3H/HeJ,significantly higher
same,reactivity of induced Abs with infected RBC's,[2]; different steps of intra-erythrocytic maturation,did not react
same,reactivity of induced Abs with intact parasite by IFAT,"[2]; sera of mucosally immunized BALB/c and C3H/HeJ, sporozoite and liver stages",react with the intact parasite
same,proliferative responses against irrelevant polypeptide (LSA1-J),[3]; Ag specificity control,lack of responses
same,"proliferative response in inguinal lymph nodes, maximal delta cpm",[3]; S.L. (first value),12525 cpm
same,proliferative responses in spleen cells,"[3]; S.L. or I.N. application, without mucosal adjuvant, recall polypeptide",strong proliferative responses
same,phenotype of lymphoproliferative responses,"[3]; mucosal administration, abrogated by antibodies against CD4 but not by anti-CD8",CD4 phenotype
same,"proliferative response in inguinal lymph nodes, maximal delta cpm",[3]; printed 'in S.L',16189 cpm
same,"proliferative responses, mucosally versus subcutaneously immunized animals","[3]; same dose, P<0.05",higher levels
same,"anti-peptide IgA, IgM and IgG3","[4]; all groups (I.N., S.L., S.C.)",low and similar titers
same,serum antibody isotype response,"[4]; mucosal administration (I.N., S.L.)",preferential IgG2a
same,serum antibody isotype response,[4]; subcutaneous route,dominant IgG1
"Concanavaline A [CON A, reference compound]","immune response (CFSE shift), positive control",[5]; in vitro positive control,maximum immune response
Nh2-K(NεPam)GRQYIKANSKFIGITERGRILKEPVHGV-COOH [TT-pol. (HIV)],"shift of fluorescence (CFSE), immune response","[5]; mouse, in vivo",as intense as that provided by positive CON A control
